Like-named read-outs stand apart in the source and are kept apart here.
Legend:
[1] = test system: MOLM14 cells; assay: Proliferation assay A (spheroid assay) MOLM14; format: cell-based; conditions: Homo sapiens, MOLM-14, 192 h, 8 d, AUC of confluence against time, absolute IC50, read-out: (3a) Spheroid assay MOLM14 (IC50(μM)) Assay A
Method: (§1) 3a) Proliferation Assay A
(§2) The anti-proliferative effect of menin/MLL protein/protein interaction inhibitor test compounds was assessed in human leukemia cell lines. The cell lines MV-4-11 and MOLM14 harbor MLL translocations and express the MLL fusion proteins MLL-AF4 and MLL-AF9, respectively, as well as the wildtype protein from the second allele. […] K562 was used as a control cell line containing two MLL wildtype alleles in order to exclude compounds that display general cytotoxic effects.
(§3) MV-4-11 and MOLM14 were cultured in RPMI-1640 (Sigma Aldrich) supplemented with 10% fetal bovine serum (HyClone), 2 mM L-glutamine (Sigma Aldrich) and 50 μg/ml gentamycin (Gibco). K562 were propagated in RPMI-1640 (Sigma Aldrich) supplemented with 20% fetal bovine serum (HyClone), 2 mM L-glutamine (Sigma Aldrich) and 50 μg/ml gentamycin (Gibco).
(§4) In order to assess the anti-proliferative effects, 1,500 MV-4-11, 300 MOLM14 or 750 K562 cells were seeded in 200 μl media per well in 96-well round bottom, ultra-low attachment plates (Costar, catalogue number 7007). Cell seeding numbers were chosen based on growth curves to ensure linear growth throughout the experiment. Test compounds were added at different concentrations and the DMSO content was normalized to 0.3%. Cells were incubated for 8 d at 37° C. and 5% CO2. Spheroid like growth was monitored in real-time by live-cell imaging (IncuCyteZOOM, Essenbio, 4× objective) acquiring one image every four hours for 8 d. Confluence (%) as a measure of spheroid size was determined using an integrated analysis tool.
(§5) In order to determine the cumulative effect of the test compounds over time, the area under the curve (AUC) in a plot of confluence against time was calculated. Confluence at the beginning of the experiment (t=0) was used as baseline for the AUC calculation.
(§6) Absolute IC50 values were calculated according to the following procedure:
(§7) % Control=(AUC sample/AUC control)*100
(§8) AUC control=mean AUC of control values (cells without compound/DMSO as vehicle control)
(§9) A non-linear curve fit was applied using the least squares (ordinary) fit method to the plot of % control versus compound concentration. Based on this, the absolute IC50 value (half maximal inhibitory concentration of the test compound causing an anti-proliferative effect of 50% relative to the vehicle control) was calculated.

[2] = target: T1, menin.FITC-MBM1 complex (terbium chelate-labeled menin) (Homo sapiens, UniProt O00255, F410E/T541A); assay: Menin/MLL homogenous time-resolved fluorescence (HTRF) assay; format: binding
T1 construct: Menin (a.a. 1-610-6×his tag) was labeled with terbium cryptate as follows
T1 sequence (O00255 with tags, fused parts or gaps F410E/T541A): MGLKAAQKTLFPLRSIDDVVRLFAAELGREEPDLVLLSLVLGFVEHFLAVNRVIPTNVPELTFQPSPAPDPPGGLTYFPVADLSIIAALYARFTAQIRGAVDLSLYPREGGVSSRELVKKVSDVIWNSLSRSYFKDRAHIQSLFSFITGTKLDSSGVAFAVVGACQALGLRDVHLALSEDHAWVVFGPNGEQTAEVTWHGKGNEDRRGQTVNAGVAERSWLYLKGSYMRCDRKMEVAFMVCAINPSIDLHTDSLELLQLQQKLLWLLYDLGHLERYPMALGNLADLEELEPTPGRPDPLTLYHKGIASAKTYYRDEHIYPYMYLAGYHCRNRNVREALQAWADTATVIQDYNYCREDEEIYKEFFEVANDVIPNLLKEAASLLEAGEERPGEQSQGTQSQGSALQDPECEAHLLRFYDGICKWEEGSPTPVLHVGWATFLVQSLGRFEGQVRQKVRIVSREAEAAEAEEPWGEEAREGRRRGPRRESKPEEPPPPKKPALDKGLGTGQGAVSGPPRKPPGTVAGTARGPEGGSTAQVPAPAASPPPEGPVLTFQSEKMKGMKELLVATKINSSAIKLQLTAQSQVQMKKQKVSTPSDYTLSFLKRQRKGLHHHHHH
Method: 2) Menin/MLL Homogenous Time-Resolved Fluorescence (HTRF) Assay
To an untreated, white 384-well microtiter plate was added 40 nL 200× test compound in DMSO and 4 μL 2× terbium chelate-labeled menin (vide infra for preparation) in assay buffer (40 mM Tris.HCl, pH 7.5, 50 mM NaCl, 1 mM DTT and 0.05% Plutonic F-127). After incubation of test compound and terbium chelate-labeled menin for 5 min at ambient temperature, 4 μL2× FITC-MBM1 peptide (FITC-β-alanine-[…]-NH2) in assay buffer was added, the microtiter plate centrifuged at 1000 rpm for 1 min and the assay mixtures incubated for 15 min at ambient temperature. The relative amount of menin.FITC-MBM1 complex present in an assay mixture is determined by measuring the homogenous time-resolved fluorescence (HTRF) of the terbium/FITC donor/acceptor fluorphore pair using a BMG Pherastar plate reader (ex. 337 nm/terbium em. 490 nm/FITC em. 520 nm) at ambient temperature. The degree of fluorescence resonance energy transfer (the HTRF value) is expressed as the ratio of the fluorescence emission intensities of the FITC and terbium fluorophores (F^em 520 nm/F^em 490 nm). The final concentrations of reagents in the binding assay are 100 pM terbium chelate-labeled menin (location 1) or 600 pM terbium chelate-labeled menin (location 2), 75 nM FITC-MBM1 peptide and 0.5% DMSO in assay buffer. Dose-response titrations of test compounds are conducted using an 11 point, three-fold serial dilution scheme, starting typically at 25 μM (location 1) or starting typically at 10 μM (location 2).
Compound potencies were determined by first calculating % inhibition at each compound concentration according to equation 1:
% inhibition=((HC−LC)−(HTRF^compound−LC))/(HC−LC))*100 (Eqn 1)
Where LC and HC are the HTRF values of the assay in the presence or absence of a saturating concentration of a compound that competes with FITC-MBM1 for binding to menin, and HTRF^compound is the measured HTRF value in the presence of the test compound. HC and LC HTRF values represent an average of at least 16 replicates per plate.
% inhibition=Bottom+(Top−Bottom)/(1+10^((log IC50−log [cmpd])*h)) (Eqn 2)
Where Bottom and Top are the lower and upper asymptotes of the dose-response curve, respectively, IC50 is the concentration of compound that yields 50% inhibition of signal and h is the Hill coefficient.
Preparation of Terbium cryptate labeling of Menin: Menin (a.a. 1-610-6×his tag) was labeled with terbium cryptate as follows. 2 mg of Menin was buffer exchanged into 1× phosphate buffered saline. 16 uM Menin was incubated with 4-fold molar excess NHS-terbium cryptate (Cisbio Bioassays, Bedford, Mass.) for 2 hours at room temperature. The labeled protein was purified away from free label by running the reaction over a Superdex 200 Increase 10/300 GL column at 0.75 ml/min. Peak fractions were collected, aliquoted and frozen at −80° C.

[3] = test system: MV-4-11 cells; assay: Proliferation assay A (spheroid assay) MV-4-11; format: cell-based; conditions: Homo sapiens, MV4-11, 192 h, 8 d, AUC of confluence against time, absolute IC50, read-out: (3a) Spheroid assay MV-4-11 (IC50(μM)) Assay A
Method: as §1, §2, §3, §4, §5, §6, §7, §8, §9

[4] = test system: MV-4-11 cells; assay: Proliferation assay B (spheroid assay) MV-4-11; format: cell-based; conditions: Homo sapiens, MV4-11, 192 h, confluence at day 8, read-out: (3b) Spheroid assay MV-4-11 (IC50(μM)) Assay B
Method: (§10) 3b) Proliferation Assay B
as §2
MV-4-11 and MOLM14 were cultured in RPMI-1640 (Sigma Aldrich) supplemented with 10% fetal bovine serum (HyClone), 2 mM L-glutamine (Sigma Aldrich) and 50 μg/ml gentamycin (Gibco). […]
In order to assess the anti-proliferative effects, 1,500 MV-4-11, 300 MOLM14 cells or 750 K562 cells were seeded in 200 μl media per well in 96-well round bottom, ultra-low attachment plates (Costar, catalogue number 7007). […] Spheroid like growth was measured in real-time by live-cell imaging (IncuCyteZOOM, Essenbio, 4× objective) acquiring images at day 8. Confluence (%) as a measure of spheroid size was determined using an integrated analysis tool.
In order to determine the effect of the test compounds over time, the confluence in each well as a measure of spheroid size, was calculated. […]
Absolute IC50 values were calculated as percent change in confluence as follows: […]

[5] = test system: MOLM14 cells; assay: Proliferation assay B (spheroid assay) MOLM14; format: cell-based, human; conditions: Homo sapiens, MOLM-14, 192 h, confluence at day 8, read-out: (3b) Spheroid assay MOLM14 (IC50(μM)) Assay B
Method: as §10, §2, §3
as §4, with “MOLM14 cells” for “MOLM14”, “measured” for “monitored”, “images at day 8.” for “one image every four hours for 8 d.”
In order to determine the effect of the test compounds over time, the confluence in each well as a measure of spheroid size, was calculated. Confluence […] at the beginning of the experiment (t=0) was used as baseline for the calculation.
Absolute IC50 values were calculated as percent change in confluence as follows:
LC=Low Control: cells treated with 1 μM of the cytotoxic agent staurosporin
HC=High Control: Mean confluence (%) (DMSO treated cells)
Effect=100−(100*(Sample−LC)/(HC−LC))
To determine the IC50 a curve is fitted to the plot of % Effect vs Log 10 compound concentration using a sigmoidal fit with a variable slope and fixing the maximum to 100% and the minimum to 0%.

[6] = location 2, read-out: (2) location 2 Menin HTRF assay (IC50 (nM))
[7] = location 1, read-out: (2) location 1 Menin HTRF assay (IC50 (nM))

Row | Structure (SMILES) | IC50 [1] | IC50 [2, 6] | IC50 [3] | IC50 [2, 7] | IC50 [4] | IC50 [5]
1 | O=c1[nH]c2cc(CN[C@H]3CCC4(C3)CN(c3ncnc5sc(CC(F)(F)F)cc35)C4)ccc2o1 (single isomer, unassigned) [Compound 58] | 0.14 µM | – | – | – | – | –
2 | O=c1[nH]c2ccc(CN[C@H]3CCC4(C3)CN(c3ncnc5sc(CC(F)(F)F)cc35)C4)cc2o1 (single isomer, unassigned) [Compound 56] | 2 µM | 5.1 nM | 0.45 µM | – | – | –
3 | FC(F)(F)Cc1cc2c(N3CC4(CCC(NCc5ccccc5)C4)C3)ncnc2s1 (single isomer, unassigned) [Compound 46] | 1.87 µM | – | 0.31 µM | 22 nM | – | –
4 | FC(F)(F)Cc1cc2c(N3CCC4(CCC(Nc5ccc(-c6cc[nH]n6)cc5)C4)C3)ncnc2s1 (stereo not shown) [Compound 138] | > 3.75 µM | 8.8 nM | 3.92 µM | – | – | –
5 | N#CCn1c(=O)[nH]c2cc(CNC3CCC4(C3)CN(c3ncnc5sc(CC(F)(F)F)cc35)C4)ccc21 (stereo not shown) [Compound 99] | – | 1.1 nM | – | – | 0.03 µM | 0.19 µM
6 | FC(F)(F)Cc1cc2c(N3CC4(CC[C@H](NCc5ccccc5)C4)C3)ncnc2s1 [Compound 45] | 2.36 µM | – | 0.41 µM | 20.4 nM | – | –

— US20230039917A1, “EXO-AZA SPIRO INHIBITORS OF MENIN-MLL INTERACTION” (Janssen Pharmaceutica NV, priority 2017, published 2023)
